Measured values from patent US11320438B2, “Isotopic methods for measurement of tryptophan and metabolites thereof” (ELECTROPHORETICS LIMITED, priority 2015, dated 2022).
One block for each molecule: values may come before it.

Experiments:
[1] = target: T1, aryl hydrocarbon receptor (Homo sapiens, UniProt P35869); experiment: qRT-PCR of AHR target genes in SKOV-3 cells; format: cell-based
T1 construct: Treatment of SKOV-3 cells with 1-D/L-MT under tryptophan-free conditions induced the AHR target genes CYP1A1 and TIPARP; endogenous in cells; host or cells: SKOV-3 ovarian carcinoma cells
T1 sequence (P35869 11-848): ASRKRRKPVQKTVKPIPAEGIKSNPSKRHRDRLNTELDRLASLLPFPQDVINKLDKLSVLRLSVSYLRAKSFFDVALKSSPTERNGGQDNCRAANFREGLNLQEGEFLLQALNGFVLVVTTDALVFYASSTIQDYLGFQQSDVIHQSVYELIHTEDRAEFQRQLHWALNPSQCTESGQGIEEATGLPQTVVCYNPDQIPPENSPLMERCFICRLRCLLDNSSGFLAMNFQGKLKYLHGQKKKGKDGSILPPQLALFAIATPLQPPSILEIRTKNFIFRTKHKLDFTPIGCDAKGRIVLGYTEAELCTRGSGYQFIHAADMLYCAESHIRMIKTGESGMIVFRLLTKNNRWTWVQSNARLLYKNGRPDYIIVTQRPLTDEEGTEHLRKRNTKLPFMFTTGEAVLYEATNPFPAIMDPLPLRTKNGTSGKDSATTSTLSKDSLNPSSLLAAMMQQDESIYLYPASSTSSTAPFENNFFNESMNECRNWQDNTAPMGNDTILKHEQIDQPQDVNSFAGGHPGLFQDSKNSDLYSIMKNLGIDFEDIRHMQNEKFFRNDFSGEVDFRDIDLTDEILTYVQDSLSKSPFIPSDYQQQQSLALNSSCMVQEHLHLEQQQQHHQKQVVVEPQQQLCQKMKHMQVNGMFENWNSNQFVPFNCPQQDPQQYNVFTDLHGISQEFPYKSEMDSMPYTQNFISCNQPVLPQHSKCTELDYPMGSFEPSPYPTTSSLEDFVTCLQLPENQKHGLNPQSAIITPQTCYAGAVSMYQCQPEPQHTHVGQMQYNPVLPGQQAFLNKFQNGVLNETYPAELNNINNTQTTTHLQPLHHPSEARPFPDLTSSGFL
Description: (§1) SKOV-3 ovarian carcinoma cells were cultured in McCoy's 5A Medium (BioConcept, Allschwil, Switzerland) supplemented with L-Tryptophan as indicated (Sigma-Aldrich, Taufkirchen, Germany), 300 mg/l Glutamine (Carl Roth, Karlsruhe, Germany), 10% FBS (Thermo Fisher Scientific Inc., Waltham, Mass., USA) and 100 U/mL penicillin and 100 μg/mL streptomycin (PAA Laboratories, Pasching, Austria). Human embryonic kidney (HEK) cells were cultured in DMEM (PAA Laboratories), 10% FBS (Thermo Scientific) and 100 U/mL penicillin and 100 μg/mL streptomycin (PAA Laboratories). Peripheral blood mononuclear cells (PBMC) were isolated from healthy, non-related blood-donors by density-gradient centrifugation using lymphocyte separation medium LSA 1077 (PAA Laboratories) and cultured in RPMI 1640 (PAA Laboratories) containing 10% FBS (Thermo Fisher Scientific Inc) and 100 U/mL penicillin and 100 μg/mL streptomycin (PAA Laboratories). For the generation of dendritic cells (DC), CD14+ cells were separated using the magnetic activated cell sorting (MACS) technology (Miltenyi Biotec, Bergisch Gladbach, Germany) and plated in RPMI 1640 (Cambrex, Verviers, Belgium) containing 10% FBS, 200 IU/mL interleukin-4 and 1000 IU/mL GM-CSF (Immunotools, Friesoythe, Germany) for 7 days. All cells were routinely tested for contamination by the Multiplex cell Contamination Test (44). Cultures were incubated at 37° C. in a 5% CO2 atmosphere. […]
Total RNA was isolated with the Qiagen RNAeasy RNA isolation kit (Hilden, Germany) and cDNA was synthesized with the Applied Biosystems reverse-transcription-Kit (Foster City, USA) according to manufacturer's instructions. […] The size of the amplicons was analyzed by loading the samples and a 100 bp ladder (Invitrogen, Leek, Netherlands) on a 2% agarose gel, which was then stained with ethidium bromide and analyzed under UV light. […] Relative quantification of gene expression was determined by comparison of threshold values. […]

SKOV-3 cells = experiment: Degradation of tryptophan and 1-MT in SKOV-3 cell culture supernatants (TMT sixplex LC-MS/MS); format: in vitro ADME, human; conditions: for depletion of the substance from the media: after 6 days of incubation; for degradation to methyl-kynurenine: days 0-6, 1000 μM 1-MT with 70 μM tryptophan, or 200 μM 1-MT with no added tryptophan
Description: (§2) SKOV-3 ovarian carcinoma cells were cultured in McCoy's 5A Medium (BioConcept, Allschwil, Switzerland) supplemented with L-Tryptophan as indicated (Sigma-Aldrich, Taufkirchen, Germany), 300 mg/l Glutamine (Carl Roth, Karlsruhe, Germany), 10% FBS (Thermo Fisher Scientific Inc., Waltham, Mass., USA) and 100 U/mL penicillin and 100 μg/mL streptomycin (PAA Laboratories, Pasching, Austria). Human embryonic kidney (HEK) cells were cultured in DMEM (PAA Laboratories), 10% FBS (Thermo Scientific) and 100 U/mL penicillin and 100 μg/mL streptomycin (PAA Laboratories). Peripheral blood mononuclear cells (PBMC) were isolated from healthy, non-related blood-donors by density-gradient centrifugation using lymphocyte separation medium LSA 1077 (PAA Laboratories) and cultured in RPMI 1640 (PAA Laboratories) containing 10% FBS (Thermo Fisher Scientific Inc) and 100 U/mL penicillin and 100 μg/mL streptomycin (PAA Laboratories). For the generation of dendritic cells (DC), CD14+ cells were separated using the magnetic activated cell sorting (MACS) technology (Miltenyi Biotec, Bergisch Gladbach, Germany) and plated in RPMI 1640 (Cambrex, Verviers, Belgium) containing 10% FBS, 200 IU/mL interleukin-4 and 1000 IU/mL GM-CSF (Immunotools, Friesoythe, Germany) for 7 days. All cells were routinely tested for contamination by the Multiplex cell Contamination Test (44). Cultures were incubated at 37° C. in a 5% CO2 atmosphere. 20 mM stock solutions (of 1-methyl-D-tryptophan (1-D-MT, lot numbers: 09315BH, 08007EJ) and 1-methyl-L-tryptophan (1-L-MT, lot numbers: 08023HE, 15399MJ) (Sigma-Aldrich) were prepared by dissolving the inhibitors in 0.1 N NaOH. The pH was adjusted to 7.5 using hydrochloric acid. To avoid contamination of the cell cultures, the stock solutions were filtered through 0.2 μm filters. Interferon-gamma (IFN-g) was purchased from Immunotools (Friesoythe, Germany).
(§3) 50 μL of each single cell culture supernatant was labelled with TMT® sixplex reagents (Thermo Fisher Scientific).
The dry TMT® sixplex mixtures were reconstituted in 300 μL of water:acetonitrile 95:5 with 0.1% trifluoroacetic acid (buffer A). 150 μL were fractionated by reversed phase chromatography (Nucleosil 120-5 C18 column, 250 mm×4.6 mm, Macherey Nagel) using a Waters 2695 HPLC with UV detection at 214 nm. After loading, the sample was washed 4 min with buffer A. Then, the substances were eluted by increasing the acetonitrile content within 40 min to 55%. The flow rate was kept at 1.5 mL/min over the entire gradient. The fraction from 18-30 minutes was collected and dried.
(§4) Samples were either measured on a QTof II (Waters) mass spectrometer coupled to an UPLC nanoLC (Waters) on an LTQ Orbitrap Velos Pro (Thermo Scientific) coupled to a Proxeon nanoLC-II (Thermo Scientific) or a triple quadrupole system coupled to nanoLC-II (EASY-nLC II TSQ Vantage system). The samples were resolved in 150 μl 2% ACN, 0.1% formic acid (1 μL sample=1 μL mixed supernatant equivalent).
The SIM m/z range was from 350-500 Th with a resolution of 60000 and an AGC setting of 5e4 with a maximum scan time of 500 ms. MS/MS was acquired as TOP10 in HCD mode with a resolution of 7500 and an AGC setting of 5e4 with a maximum scan time of 500 ms. Isolation width was 1.5 amu and normalized collision energy was 60. The default charge state of the precursor was set to z=1. All other charge states were rejected. Analytes of interest were acquired in MSMS mode using an inclusion list only mode (±50 ppm) and all other analytes not included in the list were discarded.

TDO = target: T2, TDO (Homo sapiens, UniProt P48775); experiment: Degradation in supernatants of HEK cells expressing TDO; format: in vitro ADME; conditions: day 0 vs day 6
T2 construct: expressed in transfected cells; host or cells: HEK293 cells, neomycin-selected
T2 sequence (P48775 whole entry): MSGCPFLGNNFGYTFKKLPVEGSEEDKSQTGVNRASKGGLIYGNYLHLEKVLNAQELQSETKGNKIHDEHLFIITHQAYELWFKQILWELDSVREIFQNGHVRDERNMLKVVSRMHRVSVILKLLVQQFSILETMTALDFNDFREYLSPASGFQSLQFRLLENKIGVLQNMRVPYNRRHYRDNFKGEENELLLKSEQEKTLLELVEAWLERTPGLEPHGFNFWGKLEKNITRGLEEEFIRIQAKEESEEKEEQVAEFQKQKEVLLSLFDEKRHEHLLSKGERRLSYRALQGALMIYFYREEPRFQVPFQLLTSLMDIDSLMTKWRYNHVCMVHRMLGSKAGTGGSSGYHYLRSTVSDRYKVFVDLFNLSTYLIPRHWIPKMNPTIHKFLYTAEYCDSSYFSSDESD
Description: SKOV-3 ovarian carcinoma cells were cultured in McCoy's 5A Medium (BioConcept, Allschwil, Switzerland) supplemented with L-Tryptophan as indicated (Sigma-Aldrich, Taufkirchen, Germany), 300 mg/l Glutamine (Carl Roth, Karlsruhe, Germany), 10% FBS (Thermo Fisher Scientific Inc., Waltham, Mass., USA) and 100 U/mL penicillin and 100 μg/mL streptomycin (PAA Laboratories, Pasching, Austria). Human embryonic kidney (HEK) cells were cultured in DMEM (PAA Laboratories), 10% FBS (Thermo Scientific) and 100 U/mL penicillin and 100 μg/mL streptomycin (PAA Laboratories). […] All cells were routinely tested for contamination by the Multiplex cell Contamination Test (44). Cultures were incubated at 37° C. in a 5% CO2 atmosphere.
The full length cDNA sequence of IDO1 and TDO was cloned via Gateway® cloning into pDEST-Flag-C, a Gateway® compatible overexpression vector containing a single C-terminal FLAG-tag, resulting in pDEST-TDO-FLAG-C and pDEST-IDO1-FLAG-C.
Basis for the pDEST-FLAG-C was the pDEST26 vector (Invitrogen). The 6×His-tag of pDEST26 was removed with site-directed mutagenesis PCR, resulting in pDEST. The single C-terminal Flag-tag was introduced into pDEST, by site-directed mutagenesis PCR, resulting in Flag-C. […] Cells were selected using 1.5 mg/ml neomycin (Sigma-Aldrich).
as §3, §4

human dendritic cells = experiment: 1-MT degradation in interferon-gamma stimulated human dendritic cells; format: in vitro ADME; conditions: IFN gamma, after 6 days of incubation
Description: as §2, §3, §4
Immune cells can also express tryptophan-degrading enzymes and tryptophan degradation is known to exert potent immunosuppressive effects (9). To assess whether also immune cells, such as dendritic cells, degrade 1-MT to methyl-kynurenine, three independent biological samples of supernatants of human dendritic cells from two different donors were analysed (only donor 1 shown). […]

[2] = Serum analysis of LPS-stimulated mice injected with 1-L-MT; conditions: 1 mg/mouse 1-L-MT i.p.
Description: Animal work was supervised by institutional animal protection officials in accordance with the National Institute of Health guidelines Guide for the Care and Use of Laboratory Animals. C57BL/6N mice were purchased from Charles River (Sulzfeld, Germany). […] The blood was centrifuged to obtain serum, which was finally prepared for LC-MS/MS measurements.
50 μL of serum sample was precipitated with 50 μL TCA-solution (60 g/l) at 4° C. overnight. The suspension was centrifuged for 15 minutes at 4° C. at 6000 g. The pellet was discarded and the supernatant used for further experiments after neutralization with 1 M NaOH to pH 7-8.
66 μL of each precipitated and neutralized mouse serum sample were diluted with 6 μL of 1M triethylammonium bicarbonate (TEAB, Sigma-Aldrich) and then 24 μL of a 60 mM TMT reagent stock solution in ACN (LichroSolv, VWR) were added. The reaction was incubated for 1 hour at room temperature and finally quenched by adding 12 μL of 2.5% aqueous hydroxylamine solution (Sigma-Aldrich). The respective six labelled serum samples to be compared were mixed and dried.
For the Orbitrap MS runs the mixed mouse serum sample was dissolved in 2% ACN, 0.1% formic acid and ˜0.88 μL of mixed serum equivalent was loaded on column.

HEK control cells (WT) = experiment: Degradation in supernatants of HEK control cells (WT); format: in vitro ADME, human; conditions: data not shown
Description: as §1, with “Laboratories).” for “Laboratories). For the generation of dendritic cells (DC), CD14+ cells were separated using the magnetic activated cell sorting (MACS) technology (Miltenyi Biotec, Bergisch Gladbach, Germany) and plated in RPMI 1640 (Cambrex, Verviers, Belgium) containing 10% FBS, 200 IU/mL interleukin-4 and 1000 IU/mL GM-CSF (Immunotools, Friesoythe, Germany) for 7 days. All cells were routinely tested for contamination by the Multiplex cell Contamination Test (44). Cultures were incubated at 37° C. in a 5% CO2 atmosphere.”
Samples were either measured on a QTof II (Waters) mass spectrometer coupled to an UPLC nanoLC (Waters) on an LTQ Orbitrap Velos Pro (Thermo Scientific) coupled to a Proxeon nanoLC-II (Thermo Scientific) or a triple quadrupole system coupled to nanoLC-II (EASY-nLC II TSQ Vantage system). […]

[3] = SKOV-3 cells, tryptophan-free conditions, qRT-PCR

Compound: CNc1ccccc1C(=O)C[C@H](N)C(=O)O [methyl-kynurenine, (S)—N-methyl kynurenine]
activation of the AHR ([1]; inferred from treatment of SKOV-3 cells with 1-D/L-MT): capable of activating the AHR

Compound: Cn1cc(C[C@H](N)C(=O)O)c2ccccc21 [1-L-MT, 1-methyl-L-tryptophan]
depletion of the substance from the media (SKOV-3 cells): completely depleted | degradation to methyl-kynurenine (SKOV-3 cells): degraded more quickly than 1-D-MT | increase in methyl-kynurenine after treatment (TDO): very slight increase | methyl-kynurenine in the media (human dendritic cells): increase in methyl-kynurenine | reduction of substrate in the media (human dendritic cells): reduction | serum methyl-kynurenine versus mice treated with LPS alone [2]: significantly higher concentrations of methyl-kynurenine

Compound: Cn1cc(CC(N)C(=O)O)c2ccccc21 [1-D/L-MT]
induction of AHR target gene CYP1A1 [1, 3]: induced | induction of AHR target gene TIPARP [1, 3]: induced

Compound: Cn1cc(C[C@H](N)C(=O)O)c2ccccc21 [1-MT, 1-methyl-tryptophan]
degradation by HEK control cells (HEK control cells (WT)): degraded neither | degradation / decrease of substrate in cell supernatants (TDO): no decrease

Continued, in another order:

depletion of the substance from the media (SKOV-3 cells): completely depleted
Compound: N[C@@H](Cc1c[nH]c2ccccc12)C(=O)O [L-tryptophan]

degradation to methyl-kynurenine (SKOV-3 cells): degraded to methyl-kynurenine | increase in methyl-kynurenine after treatment (TDO): not | methyl-kynurenine in the media (human dendritic cells): increase in methyl-kynurenine | reduction of substrate in the media (human dendritic cells): no clear reduction
Compound: Cn1cc(C[C@@H](N)C(=O)O)c2ccccc21 [1-D-MT, 1-methyl-D-tryptophan]
metabolism of tryptophan to kynurenine in treated samples (SKOV-3 cells; D-MT compared with L-MT samples): more quickly and higher kynurenine levels were reached

depletion of the substance from the media (SKOV-3 cells): not entirely depleted
Compound: N[C@H](Cc1c[nH]c2ccccc12)C(=O)O [D-tryptophan]

degradation by HEK control cells (HEK control cells (WT)): degraded neither | degradation / decrease of substrate in cell supernatants (TDO): degraded tryptophan to kynurenine
Compound: N[C@@H](Cc1c[nH]c2ccccc12)C(=O)O [tryptophan]
